Test results published in PMC10979003, “Development and crystal structures of a potent second-generation dual degrader of BCL-2 and BCL-xL” (Nature Communications, 2024).

Experiments:
[1] = target: T1, BCL-2 (Homo sapiens, UniProt P10415); experiment: Immunoblot degradation of BCL-2 in Jurkat cells; type: cell-based; conditions: for DC50: 16 h treatment, immunoblot
T1 construct: endogenous in cells; host or cells: Jurkat (ATCC TIB-152)
Protocol: The data are presented as mean ± s.d. from three replicate cell cultures in a representative experiment for Jurkat cells. h Left, WH244 induces polyubiquitination of WT, K22R BCL-2 and to some extent K17R but not K17/22R BCL-2 in 293T cells. 293T cells were co-transfected as indicated with Flag-BCL−2 WT or mutants and HA-tagged ubiquitin (HA-Ub) plasmids. After 36 h, cells were pretreated with MG132 (10 µM) for 2 h and then treated with or without WH244 (1 μM) for 5 h. The Flag-tagged proteins were immunoprecipitated (IP) and immunoblotted with HA or Flag antibody. Right, The input blot for this assay. Data are a representative of two independent experiments. Source data are provided as Source Data file.
Cells were collected, washed once with ice-cold phosphate-buffered saline, pH 7.2 (PBS, cat. no. 20012027; Thermo Fisher Scientific) and lysed in RIPA lysis buffer (Cat. No. BP-115DG, Boston Bio Products, Ashland, MA, USA) supplemented with protease and phosphatase inhibitor cocktails (Cat. No. PPC1010, Sigma-Aldrich, St. Louis, MO, USA) through sonication. The samples were centrifuged at 15,000 × g for 5 min and the supernatants were transferred into a new tube. The protein concentration in the supernatants was determined using the Pierce BCA protein Assay kit (cat. no. 23225, Thermo Fisher Scientific). The protein concentration was normalized, and the samples were reduced in 4× Laemmli’s SDS-sample buffer (cat. no. BP-110R, Boston Bio Products) and denatured at 95 °C for 5 min. An equal amount of protein samples (20–40 μg per lane) were resolved using precast 4–20% Tris-glycine gels (Mini-PROTEAN TGX, cat. no. 456–1094, Bio-Rad), and resolved proteins were transferred onto 0.2-μm pore size polyvinylidene difluoride (PVDF) blotting membranes (cat. no. LC2002, Thermo Fisher Scientific) using mini trans-blot electrophoretic transfer cell (Bio-Rad). The membranes were blocked with non-fat dry milk (5% wt/vol) in 1×Tris- buffered saline-Tween-20 (TBST) for 1 h at room temperature, and were subsequently probed with primary antibodies at a pre-determined optimal concentration in non-fat dry milk (5% wt/vol in TBST) overnight at 4 °C. The membranes were washed three times (15 min each) in TBST and then incubated with horse radish peroxidase (HRP)-conjugated secondary antibodies for 1 h at room temperature. Following sufficient washing with TBST, the membranes were exposed with ECL Western Blotting Substrate (Bio-Rad), and the signal was detected using the ChemiDoc MP Imaging System (Bio-Rad) and quantified using the ImageJ (v1.53a) software from NIH. Antibodies were purchased from Cell Signaling Technologies (CST) and the dilutions are as follows: BCL-xL (Cat. No. 2762S, 1:1000) and BCL-2 (Cat. No. 2870S, 1:1000). β-actin antibody was purchased from MP Biomedicals (Cat. No. 8691001, 1:20,000).

[2] = target: T2, BCL-xL R103A/D107A (Homo sapiens, UniProt Q07817, D107A/R103A); experiment: AlphaScreen binary binding, BCL-xL R103A/D107A; conditions: mean ± s.d., n=3
T2 construct: BCL-xL (aa 2-212) and BCL-2 (aa 1-207) transformed cells were grown in LB broth; SMT3 (N); made in house; host or cells: E. coli BL21 (DE3) codon plus
T2 sequence (Q07817 2-212 R103A/D107A): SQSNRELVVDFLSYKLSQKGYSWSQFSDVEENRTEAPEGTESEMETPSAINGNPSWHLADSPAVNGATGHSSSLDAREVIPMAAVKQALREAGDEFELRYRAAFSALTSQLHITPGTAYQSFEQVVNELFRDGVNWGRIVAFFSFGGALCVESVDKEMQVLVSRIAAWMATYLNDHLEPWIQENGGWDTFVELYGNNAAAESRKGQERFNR
Protocol: (§1) To test the binary/ternary binding affinities of compounds to BCL-2/BCL-xL, AlphaScreen displacement binding assay was performed to test the capabilities of testing compounds to displace a Biotin-tagged Bim (Biotin-[…]) or Bad (Biotin-[…]) from BCL-2 or BCL-xL for BCL-2 and BCL-xL binding affinities, respectively. All reagents were diluted in assay buffer of 25 mM HEPES, pH 7.5, 150 mM NaCl, 0.1% BSA, and 0.005% tween 20 prior incubation. To a 96-well PCR plate (VWR, Cat. No. 82006-636) was added 10 μL Biotin-tagged Bim (15 nM for WT or 50 nM for mutants) or Bad (15 nM for WT or 50 nM for mutants), 10 μL series diluted compounds solution (2 or 3 or 4× dilution), and 10 μL self-made 6×His tagged BCL-2 WT or mutants (25 nM WT or 50 nM mutants) or 10 μL self-made BCL-xL WT and mutants (10 nM WT or 50 nM mutants). […] The luminescence signal was detected on a Biotek’s Synergy Neo2 multimode plate reader installed with an AphaScreen filter cube. The Ki values of each compounds were calculated by fitting data into the “Binding-competitive, One site-Fit Ki” function in GraphPad Prism (9.2.0) based on concentrations of Biotin–peptide used and experimentally determined Kd values of each 6×His protein &&&and Biotin–Peptide pair.

[3] = target: T3, BCL-2 E114A Q118A (Homo sapiens, UniProt P10415, E114A/Q118A); experiment: AlphaScreen binary binding, BCL-2 E114A Q118A; conditions: mean ± s.d., n=3
T3 construct: BCL-xL (aa 2-212) and BCL-2 (aa 1-207) transformed cells were grown in LB broth; made in house; host or cells: E. coli BL21 (DE3) codon plus
T3 sequence (P10415 1-207 E114A/Q118A): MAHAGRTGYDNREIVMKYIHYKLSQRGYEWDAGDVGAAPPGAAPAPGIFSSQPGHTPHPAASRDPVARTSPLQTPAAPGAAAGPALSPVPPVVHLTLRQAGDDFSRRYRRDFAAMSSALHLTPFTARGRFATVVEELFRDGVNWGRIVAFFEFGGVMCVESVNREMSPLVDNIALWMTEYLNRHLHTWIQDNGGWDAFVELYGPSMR
Protocol: as §1

[4] = test system: H146 small cell lung cancer cells; experiment: Cytotoxicity in H146 SCLC cells in vitro; type: cell-based; conditions: Figure R4
[5] = target: T4, BCL-2 R110A E114K (Homo sapiens, UniProt P10415, E114K/R110A); experiment: AlphaScreen binary binding, BCL-2 R110A E114K; conditions: mean ± s.d., n=3
T4 construct: BCL-xL (aa 2-212) and BCL-2 (aa 1-207) transformed cells were grown in LB broth; made in house; host or cells: E. coli BL21 (DE3) codon plus
T4 sequence (P10415 1-207 R110A/E114K): as the sequence (P10415 1-207 E114A/Q118A) above, with R110A, A114K, A118Q counted along it
Protocol: as §1

T1 sequence (P10415 whole entry): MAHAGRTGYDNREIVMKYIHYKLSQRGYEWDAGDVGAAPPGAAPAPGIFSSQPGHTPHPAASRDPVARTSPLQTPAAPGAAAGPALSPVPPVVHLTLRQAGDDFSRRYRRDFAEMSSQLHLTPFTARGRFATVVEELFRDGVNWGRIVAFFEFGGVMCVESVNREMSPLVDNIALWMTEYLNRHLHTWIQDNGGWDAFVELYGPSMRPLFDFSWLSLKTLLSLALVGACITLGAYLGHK

Ki [2]	SMILES	DC50 ([1]; Jurkat cells)	Earliest time at which BCL-2 degradation is seen ([1]; 0.1 μM WH244, Jurkat cells)	Time to nearly complete degradation of BCL-2 ([1]; 0.1 μM WH244, Jurkat cells)	Time for BCL-2 level to recover to pretreatment level after removal of degrader ([1]; 0.1 μM WH244 for 16 h, then fresh medium, Jurkat cells)	DC50 fold better than 753b (BCL-2) ([1]; Jurkat cells, 16 h)	Ki [3]	Potency against H146 cells (comparison with ABT263, DT2216, 753b) [4]	Ki [5]
36.7 ± 3 nM	Cc1ncsc1-c1ccc(C(C)NC(=O)C2CC(O)CN2C(=O)C(NC(=O)CCCCCCC(=O)N2CCN(CC3(C)CCC(c4ccc(Cl)cc4)=C(CN4CCN(c5ccc(C(=O)NS(=O)(=O)c6ccc(NC(CCN7CCOCC7)CSc7ccccc7)c(S(=O)(=O)C(F)(F)F)c6)cc5)CC4)C3)CC2)C(C)(C)C)cc1 (stereo not shown) [753b]	50 nM	–	–	–	–	–	–	–
–	Cc1ncsc1-c1ccc([C@H](C)NC(=O)[C@@H]2C[C@@H](O)CN2C(=O)[C@@H](NC(=O)CN2CCN(CC(=O)N3CCN(C[C@]4(C)CCC(c5ccc(Cl)cc5)=C(CN5CCN(c6ccc(C(=O)NS(=O)(=O)c7ccc(N[C@H](CCN8C[C@@H]9C[C@H]8CO9)CSc8ccccc8)c(S(=O)(=O)C(F)(F)F)c7)cc6)CC5)C4)CC3)CC2)C(C)(C)C)cc1 [WH244]	7.4 nM	1 h	6 h	24 to 48 h	~6.8 fold	9.6 ± 0.7 nM	most potent	7 ± 0.9 nM
